Assays:
C17-C20 lyase = target: T1, C17-C20 lyase (Homo sapiens, UniProt P05093); experiment: Determination of C17-C20 lyase (human testicular microsomes, 3H-17α-hydroxyprogesterone); type: biochemical; conditions: for concentration required to achieve 50% inhibition of lyase, versus the 3-pyridyl (in words): compared with 3-pyridyl
T1 construct: Human testes were obtained from previously untreated patients undergoing orchidectomy for prostatic cancer; from tissue; host or cells: human testes, microsomes
T1 sequence (P05093 1-508): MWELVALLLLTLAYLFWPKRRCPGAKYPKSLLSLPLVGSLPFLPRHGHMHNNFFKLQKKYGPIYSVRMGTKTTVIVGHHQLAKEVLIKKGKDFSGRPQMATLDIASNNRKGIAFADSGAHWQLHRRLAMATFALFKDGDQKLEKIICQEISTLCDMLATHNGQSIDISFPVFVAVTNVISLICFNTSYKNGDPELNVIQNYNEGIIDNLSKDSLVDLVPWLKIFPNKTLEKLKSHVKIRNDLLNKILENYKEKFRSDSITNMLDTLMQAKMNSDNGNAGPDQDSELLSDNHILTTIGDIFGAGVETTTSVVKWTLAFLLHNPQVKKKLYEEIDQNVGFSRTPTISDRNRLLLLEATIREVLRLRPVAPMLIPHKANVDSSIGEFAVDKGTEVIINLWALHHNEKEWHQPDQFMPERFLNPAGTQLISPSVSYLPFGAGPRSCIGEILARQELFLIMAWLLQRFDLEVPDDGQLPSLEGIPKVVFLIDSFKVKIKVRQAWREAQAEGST
Experimental: The testes were decapsulated and stored in liquid nitrogen until use. […] The material was then thawed, finely chopped, and homogenised in 0.25M sucrose (5 ml/g wet weight) using a Potter homogeniser. The homogenate was centrifuged at 12000 g for 30 min, and then the microsomes were pelleted by spinning the supernatant at 100,000 g for 1 hr. The pellet was washed by being resuspended in 0.25M sucrose and repelleted. The microsomal pellet was then resuspended in 50 mM sodium phosphate pH 7.4/glycerol (3/1 v/v) and stored in aliquots in liquid nitrogen.
(§2) The basic assay mixture was EDTA (0.2 mM), dithiothreitol (DTT; 0.1 mM), NADPH (0.25 mM), glucose 6-phosphate dehydrogenase (G6PDH; 6.25 μg/ml), MgCl2 (1 mM), glucose 6-phosphate (G6P; 10 mM) and the substrate, 3H-progesterone (3 μM) in sodium phosphate (50 mm), pH 7.4. The compounds under test were dissolved in 50% DMSO and the final concentrations of ethanol and DMSO were 1% each. The assay reaction was carded out for 1 hour and was terminated by the addition of 2 vols. of methanol-acetonitrile (2:1) containing approx. 100 μM unlabelled progesterone, 17α-hydroxyprogesterone, androstenedione, testosterone, and 16α-hydroxyprogesterone.
The HPLC separation used for the lyase involved a mini-re-column "Uptight Guard Column" packed with PELL-ODS (pellicular octadecyl silica) and a 10 cm. main column "Apex C18" column packed with 5μ APEX-CAT silica.
The eluant was 38:12:50 methanol:acetonitrile:water flowing at 1 ml/min. The effluent was mixed 1:1 with Ecoscint A containing 5% methanol and 5% acetonitrile and the radioactivity was measured directly by a Berthold LB506C radiochemical detector. The lyase activity was measured as the production of androstenedione and testosterone.
The enzyme activity was measured in the presence of at least 4 concentrations of each compound.

17α-hydroxylase = target: T2, 17α-hydroxylase (Homo sapiens, UniProt P05093); experiment: Determination of 17α-hydroxylase (human testicular microsomes, 3H-progesterone); type: biochemical; conditions: for concentration required to achieve 50% inhibition of hydroxylase, versus the 3-pyridyl (in words): compared with 3-pyridyl
T2 construct: Human testes were obtained from previously untreated patients undergoing orchidectomy for prostatic cancer; from tissue; host or cells: human testes, microsomes
T2 sequence (P05093 1-508): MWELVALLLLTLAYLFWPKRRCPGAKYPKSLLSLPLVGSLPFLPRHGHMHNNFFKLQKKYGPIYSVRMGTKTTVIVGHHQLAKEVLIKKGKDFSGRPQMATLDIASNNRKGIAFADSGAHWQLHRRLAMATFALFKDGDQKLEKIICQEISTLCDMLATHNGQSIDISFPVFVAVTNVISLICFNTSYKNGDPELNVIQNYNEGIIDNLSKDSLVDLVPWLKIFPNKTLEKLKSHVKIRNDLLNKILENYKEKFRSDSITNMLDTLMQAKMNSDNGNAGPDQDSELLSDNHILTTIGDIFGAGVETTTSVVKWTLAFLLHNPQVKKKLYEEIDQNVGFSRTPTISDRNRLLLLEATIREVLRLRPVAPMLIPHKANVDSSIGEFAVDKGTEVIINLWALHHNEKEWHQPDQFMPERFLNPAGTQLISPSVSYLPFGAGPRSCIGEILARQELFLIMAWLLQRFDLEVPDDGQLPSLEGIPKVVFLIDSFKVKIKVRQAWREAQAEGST
Experimental: Human testes were obtained from previously untreated patients undergoing orchidectomy for prostatic cancer. The testes were decapsulated and stored in liquid nitrogen until use. A microsomal preparation was prepared essentially as described by S. E. Barrie et al., J. Steroid Biochem. 6, 1191-5, (1989). The material was then thawed, finely chopped, and homogenised in 0.25M sucrose (5 ml/g wet weight) using a Potter homogeniser. The homogenate was centrifuged at 12000 g for 30 min, and then the microsomes were pelleted by spinning the supernatant at 100,000 g for 1 hr. The pellet was washed by being resuspended in 0.25M sucrose and repelleted. The microsomal pellet was then resuspended in 50 mM sodium phosphate pH 7.4/glycerol (3/1 v/v) and stored in aliquots in liquid nitrogen.
as §2
The separation of the steroids by HPLC was carried out using an "Uptight" guard column packed with 40-63 μm Nucleosil C18 and a 10 cm main column packed with 5 μm Nucleosil C18 and 60% methanol as eluant. The radioactivity in the peaks of interest was monitored on-line by mixing the HPLC effluent 1:1 with Ecoscint A (National Diagnostics) scintillation fluid, containing 25% acetonitrile, and passing the mixture through a Berthold LB506C radiochemical monitor. The hydroxylase activity was measured as the production of 17α-hydroxyprogesterone, androstenedione and testosterone.
The enzyme activity was measured in the presence of at least 4 concentrations of each compound. The data were for the 4-pyridyl and 2-picolyl compounds of Table 1 fitted by linear regression to the Dixon equation (M. Dixon, E.C. Webb, Enzymes, 2nd ed., Academic Press, New York, 1964). Data for all the other compounds were fitted by non-linear regression to the median effect equation of Chou, J. Theoret.

luteinising hormone = experiment: In vivo endocrine test in mice: plasma luteinising hormone (RIA); conditions: 2 weeks
Experimental: (§1) Male HWT mice, 12 weeks old, were treated daily for 2 weeks, with 5 animals per treatment group. The test compounds were the compound of Examples 1 and 4 (as representative of compounds of the invention having the pregenolone-like and progesterone-like skeletons respectively). Ketoconazole was also tested at three different doses. The test compounds were made up in 5% benzyl alcohol, 95% safflower oil, and were given i.p. In addition to an untreated control group of animals, there was also a solvent control group which received the same volume of liquid as the test group (5 ml/kg) but no test compound. All animals were sacrificed 24 hours after the last injection. Blood was collected by cardiac puncture into heparinized tubes, and the plasma used for RIA (radio immunoassay) of testosterone and luteinising hormone. The following organs were removed and weighed: adrenals, prostate, seminal vesicles, testes, kidneys. There was no significant body weight loss in any group of mice during the experiments.

[1] = parameters: species or system mice; conditions: mouse, in vivo; for post mortem examination: appearance of organs / post mortem examination: deposits: ip
Experimental: as §1
In Ketoconazole-treated animals, adhesions were found in 2/5,2/5,4/5 of the low/middle/top dose groups. […] The livers were brown in the middle/top dose groups.

Male HWT mice = experiment: In vivo organ weight test in mice; conditions: for Mean weight ± standard error, Adrenals / Mean weight ± standard error, Kidneys / Mean weight ± standard error, Seminal Vesicles / Mean weight ± standard error, Prostate / Mean weight ± standard error, Testes: 2 weeks
Experimental: as §1

aromatase = target: T3, aromatase (Homo sapiens, UniProt P11511); type: biochemical; conditions: human placental microsomes
T3 construct: using human placental microsomes; from tissue; host or cells: human placenta, microsomes
T3 sequence (P11511 1-503): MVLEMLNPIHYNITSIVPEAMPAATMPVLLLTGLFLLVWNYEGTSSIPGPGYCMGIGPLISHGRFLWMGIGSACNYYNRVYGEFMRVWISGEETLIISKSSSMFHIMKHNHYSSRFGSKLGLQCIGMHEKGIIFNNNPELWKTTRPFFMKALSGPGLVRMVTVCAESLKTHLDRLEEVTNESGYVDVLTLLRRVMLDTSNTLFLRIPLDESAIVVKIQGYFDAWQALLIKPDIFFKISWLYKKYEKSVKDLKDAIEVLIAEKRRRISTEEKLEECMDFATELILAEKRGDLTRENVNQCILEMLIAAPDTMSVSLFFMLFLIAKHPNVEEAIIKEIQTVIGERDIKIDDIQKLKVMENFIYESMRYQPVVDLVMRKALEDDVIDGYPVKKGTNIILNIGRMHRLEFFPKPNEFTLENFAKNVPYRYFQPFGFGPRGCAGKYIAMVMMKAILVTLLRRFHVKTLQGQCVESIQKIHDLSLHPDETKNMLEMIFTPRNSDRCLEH
Experimental: Aromatase activity was determined by the method of A. B. Foster et al., J. Med. Chem. 26, 50-54 (1983), using human placental microsomes.

testosterone = experiment: In vivo endocrine test in mice: plasma testosterone (RIA); conditions: 2 weeks
Experimental: Male HWT mice, 12 weeks old, were treated daily for 2 weeks, with 5 animals per treatment group. […] The test compounds were made up in 5% benzyl alcohol, 95% safflower oil, and were given i.p. In addition to an untreated control group of animals, there was also a solvent control group which received the same volume of liquid as the test group (5 ml/kg) but no test compound. All animals were sacrificed 24 hours after the last injection. Blood was collected by cardiac puncture into heparinized tubes, and the plasma used for RIA (radio immunoassay) of testosterone and luteinising hormone.

[2] = substrate: C[C@]12CCC(=O)C=C1CC[C@@H]1[C@@H]2CC[C@]2(C)C(=O)CC[C@@H]12; experiment: cells, lysate or membranes named; conditions: other: human placental microsomes used

In the case of `CC12CCC(Oc3c(F)c(F)c(C(F)(F)F)c(F)c3F)CC1=CCC1C2CCC2(C)C(c3cccnc3)=CCC12` (stereo not shown), the “inhibition of lyase (in words)” value (C17-C20 lyase) is reported as “very poor inhibitor” and the “inhibition of hydroxylase (in words)” value (17α-hydroxylase) is reported as “very poor inhibitor”.

In the case of `CC(=O)O[C@H]1CC[C@@]2(C)C(=CC[C@@H]3[C@@H]2CC[C@]2(C)C(c4cccnc4)=CC[C@@H]32)C1` [Ex. 1, 3β-Acetoxy-17-(3-pyridyl)androsta-5,16-diene], the “LH (Mean ± standard error)” value (luteinising hormone; 0.02 mmol/kg/day i.p.) is reported as 3.4 ± 0.5 ng/mL, the “post mortem examination: appearance of organs” value [1] is reported as “all organs looked normal” and the “post mortem examination: deposits” value [1] is reported as “oil/white deposits i.p”. The “Mean weight ± standard error, Adrenals” value (Male HWT mice; 0.02 mmol/kg/day i.p.) was 4.3 ± 0.2 mg, the “Mean weight ± standard error, Kidneys” value (Male HWT mice; 0.02 mmol/kg/day i.p.) was 604 ± 24 mg and the “Mean weight ± standard error, Adrenals” value (Male HWT mice; 0.1 mmol/kg/day i.p.) was 4.0 ± 0.2 mg. The “Mean weight ± standard error, Kidneys” value (Male HWT mice; 0.1 mmol/kg/day i.p.) was 500 ± 8 mg, the “Mean weight ± standard error, Adrenals” value (Male HWT mice; 0.5 mmol/kg/day i.p.) was 4.7 ± 0.2 mg and the “Mean weight ± standard error, Kidneys” value (Male HWT mice; 0.5 mmol/kg/day i.p.) was 449 ± 12 mg.

Molecule `C[C@]12CC[C@H](O)CC1=CC[C@@H]1[C@@H]2CC[C@]2(C)C(c3cccnc3)=CC[C@@H]12` [Ex. 2, 17-(3-Pyridyl)androsta-5,16-dien-3β-ol] has an IC50 (aromatase) greater than 20000 nM.

With `C[C@]12CCC(=O)C=C1CC[C@@H]1[C@@H]2CC[C@]2(C)C(c3cccnc3)=CC[C@@H]12` [Ex. 4, 17-(3-Pyridyl)androsta-4,16-dien-3-one] the “Testosterone (Mean ± standard error)” value (testosterone; 0.02 mmol/kg/day i.p.) was 4.5 ± 0.3 nM, the “Testosterone (Mean ± standard error)” value (testosterone; 0.1 mmol/kg/day i.p.) was 3.5 ± 1.0 nM and the “Testosterone (Mean ± standard error)” value (testosterone; 0.5 mmol/kg/day i.p.) was 0.4 ± 0.1 nM. The “post mortem examination: appearance of organs” value [1] was “all organs looked normal”, the “post mortem examination: deposits” value [1] was “white deposits throughout the abdomen” and the “Mean weight ± standard error, Adrenals” value (Male HWT mice; 0.02 mmol/kg/day i.p.) was 4.7 ± 0.2 mg. For the same molecule, the “Mean weight ± standard error, Seminal Vesicles” value (Male HWT mice; 0.02 mmol/kg/day i.p.) was 108 ± 4 mg, the “Mean weight ± standard error, Adrenals” value (Male HWT mice; 0.1 mmol/kg/day i.p.) was 4.6 ± 0.4 mg and the “Mean weight ± standard error, Seminal Vesicles” value (Male HWT mice; 0.1 mmol/kg/day i.p.) was 61 ± 9 mg. For the same molecule, the “Mean weight ± standard error, Adrenals” value (Male HWT mice; 0.5 mmol/kg/day i.p.) was 4.9 ± 0.1 mg and the “Mean weight ± standard error, Seminal Vesicles” value (Male HWT mice; 0.5 mmol/kg/day i.p.) was 25 ± 1 mg.

With `C[C@]12CCC(=O)C[C@@H]1CC[C@@H]1[C@@H]2CC[C@]2(C)C(c3cccnc3)=CC[C@@H]12` [Ex. 9, 17-(3-Pyridyl)-5α-androst-16-en-3-one] the IC50 (17α-hydroxylase; approx. 4 nM enzyme, A and B ring variations, read-out: IC50 Hydroxylase (Table 2(a))) was 4.7 nM.

With `C[C@]12CC[C@H](O)CC1=CC[C@@H]1[C@@H]2CC[C@]2(C)C(c3ccccn3)=CC[C@@H]12` [Example 2-Pyridyl] the “concentration required to achieve 50% inhibition of lyase, versus the 3-pyridyl (in words)” value (C17-C20 lyase) was “far greater” and the “concentration required to achieve 50% inhibition of hydroxylase, versus the 3-pyridyl (in words)” value (17α-hydroxylase) was “far greater”.

For `C[C@]12CC[C@H](O)CC1=CC[C@@H]1[C@@H]2CC[C@]2(C)C(Cc3ccccn3)=CC[C@@H]12` [Example 2-picolyl], the “concentration required to achieve 50% inhibition of lyase, versus the 3-pyridyl (in words)” value (C17-C20 lyase) was “far greater” and the “concentration required to achieve 50% inhibition of hydroxylase, versus the 3-pyridyl (in words)” value (17α-hydroxylase) was “far greater”.

For `C[C@]12CC[C@H](O)CC1=CC[C@@H]1[C@@H]2CC[C@]2(C)C(c3ccncc3)=CC[C@@H]12` [Example 4-pyridyl], the “concentration required to achieve 50% inhibition of lyase, versus the 3-pyridyl (in words)” value (C17-C20 lyase) was “far greater” and the “concentration required to achieve 50% inhibition of hydroxylase, versus the 3-pyridyl (in words)” value (17α-hydroxylase) was “far greater”.

For `CC(=O)N1CCN(c2ccc(OCC3COC(Cn4ccnc4)(c4ccc(Cl)cc4Cl)O3)cc2)CC1` (stereo not shown) [Ketoconazole], the “LH (Mean ± standard error)” value (luteinising hormone; 0.1 mmol/kg/day i.p.) was 0.39 ± 0.14 ng/mL, the “LH (Mean ± standard error)” value (luteinising hormone; 0.225 mmol/kg/day i.p.) was 0.75 ± 0.02 ng/mL and the “LH (Mean ± standard error)” value (luteinising hormone; 0.5 mmol/kg/day i.p.) was 0.76 ± 0.03 ng/mL. The appearance of livers [1] was “brown”, the “gut and peritoneal wall, appearance” value [1] was “seemed to be stuck to the seminal vesicles” and the “Mean weight ± standard error, Adrenals” value (Male HWT mice; 0.01 mmol/kg/day i.p.) was 4.8 ± 0.2 mg. The “Mean weight ± standard error, Kidneys” value (Male HWT mice; 0.01 mmol/kg/day i.p.) was 637 ± 22 mg, the “Mean weight ± standard error, Prostate” value (Male HWT mice; 0.01 mmol/kg/day i.p.) was 9.1 ± 0.8 mg and the “Mean weight ± standard error, Seminal Vesicles” value (Male HWT mice; 0.01 mmol/kg/day i.p.) was 235 ± 18 mg. The “Mean weight ± standard error, Testes” value (Male HWT mice; 0.01 mmol/kg/day i.p.) was 141 ± 5 mg, the “Mean weight ± standard error, Adrenals” value (Male HWT mice; 0.225 mmol/kg/day i.p.) was 6.1 ± 0.3 mg and the “Mean weight ± standard error, Kidneys” value (Male HWT mice; 0.225 mmol/kg/day i.p.) was 574 ± 23 mg. The “Mean weight ± standard error, Prostate” value (Male HWT mice; 0.225 mmol/kg/day i.p.) was 10.8 mg, the “Mean weight ± standard error, Seminal Vesicles” value (Male HWT mice; 0.225 mmol/kg/day i.p.) was 171 ± 5 mg and the “Mean weight ± standard error, Testes” value (Male HWT mice; 0.225 mmol/kg/day i.p.) was 127 ± 7 mg. The “Mean weight ± standard error, Adrenals” value (Male HWT mice; 0.5 mmol/kg/day i.p.) was 6.9 ± 0.3 mg, the “Mean weight ± standard error, Kidneys” value (Male HWT mice; 0.5 mmol/kg/day i.p.) was 710 ± 30 mg and the “Mean weight ± standard error, Prostate” value (Male HWT mice; 0.5 mmol/kg/day i.p.) was 9.3 ± 0.9 mg. The “Mean weight ± standard error, Seminal Vesicles” value (Male HWT mice; 0.5 mmol/kg/day i.p.) was 179 ± 20 mg, the “Mean weight ± standard error, Testes” value (Male HWT mice; 0.5 mmol/kg/day i.p.) was 133 ± 6 mg and the “effect on adrenal weight” value (Male HWT mice; two highest doses) was “increase in adrenal weight”.

B1: aromatase (Homo sapiens) (protein)
chain: MVLEMLNPIHYNITSIVPEAMPAATMPVLLLTGLFLLVWNYEGTSSIPGPGYCMGIGPLISHGRFLWMGIGSACNYYNRVYGEFMRVWISGEETLIISKSSSMFHIMKHNHYSSRFGSKLGLQCIGMHEKGIIFNNNPELWKTTRPFFMKALSGPGLVRMVTVCAESLKTHLDRLEEVTNESGYVDVLTLLRRVMLDTSNTLFLRIPLDESAIVVKIQGYFDAWQALLIKPDIFFKISWLYKKYEKSVKDLKDAIEVLIAEKRRRISTEEKLEECMDFATELILAEKRGDLTRENVNQCILEMLIAAPDTMSVSLFFMLFLIAKHPNVEEAIIKEIQTVIGERDIKIDDIQKLKVMENFIYESMRYQPVVDLVMRKALEDDVIDGYPVKKGTNIILNIGRMHRLEFFPKPNEFTLENFAKNVPYRYFQPFGFGPRGCAGKYIAMVMMKAILVTLLRRFHVKTLQGQCVESIQKIHDLSLHPDETKNMLEMIFTPRNSDRCLEH
Work on B1 yielded a Km [2] of 0.039 µM.

Reference: patent US5604213A, “17-substituted steroids useful in cancer treatment” (priority 1992, dated 1997)
